In patent publication US10710986B2, “PD-1/PD-L1 inhibitors” (Gilead Sciences, Inc., priority 2018, dated 2020):

What follows are compounds tested against PD-1/PD-L1 (Homo sapiens (Human), UniProt Q9NZQ7) (assay: PD-1/PD-L1 biochemical protein-protein interaction assay (ALPHA)). Conditions: 0.3 nM His tagged PD-L1, 2.5 nM biotinylated Fc-PD-1, 60 minutes at 25° C., read-out: IC50 PD-L1-PD1.
Method: Binding of the protein pairs is measured using a bead based Amplified Luminescent Proximity Homogeneous Assay (ALPHA) platform. Binding of each protein pair results in proximity of the donor and acceptor beads which leads to an increase in ALPHA signal. […] Assays are performed in 25 mM Hepes (pH 7.4), 150 mM NaCl, 3.4 mM EDTA, 0.005% Tween 20, and 0.01% BSA. […] After an assay reaction time of 60 minutes at 25° C., binding was measured with addition of 20 μg/mL ALPHA assay acceptor beads (anti-His coated) and 20 µg/mL ALPHA assay donor beads (streptavidin coated). IC50 values were calculated from the fit of the dose-response curves to a four-parameter equation.

Chain of PD-1/PD-L1 (Q9NZQ7 19-238): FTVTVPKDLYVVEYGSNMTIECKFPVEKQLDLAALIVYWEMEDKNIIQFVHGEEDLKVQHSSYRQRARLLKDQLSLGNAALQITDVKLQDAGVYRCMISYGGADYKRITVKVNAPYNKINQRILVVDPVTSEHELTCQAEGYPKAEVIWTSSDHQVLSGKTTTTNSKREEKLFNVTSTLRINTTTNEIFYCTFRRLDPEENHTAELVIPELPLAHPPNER

Structure (SMILES) | IC50 [nM]
COc1nc(-c2cccc(-c3cccc(-c4cnc(CNC[C@@H]5CCC(=O)N5)c(OC)n4)c3Cl)c2Cl)cnc1CNCCS(N)(=O)=O [compound 43] | 0.083
COc1nc(-c2cccc(-c3cccc(-c4cnc(CNC[C@@H]5CCC(=O)N5)c(OC)n4)c3Cl)c2Cl)cnc1CNCCNC(N)=O [compound 44] | 0.113
COc1nc(-c2cccc(-c3cccc(-c4cnc(CNC[C@@H]5CCC(=O)N5)c(OC)n4)c3Cl)c2Cl)cnc1CNCCC(N)=O [compound 45] | 0.064
COc1nc(-c2cccc(-c3cccc(-c4cnc(CN(C)C)c(OC)n4)c3Cl)c2Cl)cnc1CNC[C@@H]1CCC(=O)N1 [compound 46] | 0.081
COc1nc(-c2cccc(-c3cccc(-c4cnc(CNC[C@@H]5CCC(=O)N5)c(OC)n4)c3Cl)c2Cl)cnc1CNCC(O)C(F)(F)F (stereo partly drawn) [compound 47] | 0.16
COc1nc(-c2cccc(-c3cccc(-c4cnc(CN5CC6(CNC(=O)O6)C5)c(OC)n4)c3Cl)c2Cl)cnc1CNC[C@@H]1CCC(=O)N1 [compound 50] | 0.259
COc1nc(-c2cccc(-c3cccc(-c4cnc(CN(C)CC(N)=O)c(OC)n4)c3Cl)c2Cl)cnc1CNC[C@@H]1CCC(=O)N1 [compound 51] | 0.301
COc1nc(-c2cccc(-c3cccc(-c4cnc(CN5CC6CC6(CO)C5)c(OC)n4)c3Cl)c2Cl)cnc1CNC[C@@H]1CCC(=O)N1 (stereo partly drawn) [compound 52] | 0.17
COc1nc(-c2cccc(-c3cccc(-c4cnc(CN5CC6CC5(CO)C6)c(OC)n4)c3Cl)c2Cl)cnc1CNC[C@@H]1CCC(=O)N1 [compound 53] | 0.1
COc1nc(-c2cccc(-c3cccc(-c4cnc(CNC[C@H]5CCC[C@@H]5O)c(OC)n4)c3Cl)c2Cl)cnc1CNC[C@@H]1CCC(=O)N1 [compound 54] | 0.18
CNc1nc(-c2cccc(-c3cccc(-c4cnc(CN5CC6(C5)CN(C(C)=O)C6)c(OC)n4)c3Cl)c2Cl)cnc1CN1CC2(C1)CN(C(C)=O)C2 [compound 59] | 0.1
CNc1nc(-c2cccc(-c3cccc(-c4cnc(CN5CC(O)C5)c(OC)n4)c3Cl)c2Cl)cnc1CN1CC(O)C1 [compound 60] | 0.14
CNc1nc(-c2cccc(-c3cccc(-c4cnc(CN5CC6(CCC(=O)N6)C5)c(OC)n4)c3Cl)c2Cl)cnc1CN1CC2(CCC(=O)N2)C1 [compound 62] | 0.16
CCNc1nc(-c2cccc(-c3cccc(-c4cnc(CN5CC(O)C5)c(NCC)n4)c3Cl)c2Cl)cnc1CN1CC(O)C1 [compound 66] | 0.61
CCNc1nc(-c2cccc(-c3cccc(-c4cnc(CN5CC6(CNC(=O)C6)C5)c(NCC)n4)c3Cl)c2Cl)cnc1CN1CC2(CNC(=O)C2)C1 [compound 67] | 0.292
CCNc1nc(-c2cccc(-c3cccc(-c4cnc(CN5CC6(CCC(=O)N6)C5)c(NCC)n4)c3Cl)c2Cl)cnc1CN1CC2(CCC(=O)N2)C1 [compound 68] | 0.403
CNc1nc(-c2cccc(-c3cccc(-c4cnc(CN5CC(F)C5)c(NC)n4)c3Cl)c2Cl)cnc1CN1CC(F)C1 [compound 69] | 2.62
CNc1nc(-c2cccc(-c3cccc(-c4cnc(CN5CCC5)c(NC)n4)c3Cl)c2Cl)cnc1CN1CCC1 [compound 72] | 0.198
CNCc1ncc(-c2cccc(-c3cccc(-c4cnc(CN5CCC5)c(NC)n4)c3Cl)c2Cl)nc1NC [compound 73] | 0.37

Structure (SMILES) | IC50 [nM]
CNCc1ncc(-c2cccc(-c3cccc(-c4cnc(CNC)c(NC)n4)c3Cl)c2Cl)nc1NC [compound 74] | 1.34
CNc1nc(-c2cccc(-c3cccc(-c4cnc(CN5CC(OC)C5)c(NC)n4)c3Cl)c2Cl)cnc1CN1CC(OC)C1 [compound 75] | 0.877
CNc1nc(-c2cccc(-c3cccc(-c4cnc(CN5CC6(C5)CN(C(C)=O)C6)c(NC)n4)c3Cl)c2Cl)cnc1CN1CC2(C1)CN(C(C)=O)C2 [compound 76] | 0.09
CNc1nc(-c2cccc(-c3cccc(-c4cnc(CN5CC(O)C5)c(NC)n4)c3Cl)c2Cl)cnc1CN1CC(O)C1 [compound 77] | 0.192
CNc1nc(-c2cccc(-c3cccc(-c4cnc(CN5CC6(CNC(=O)C6)C5)c(NC)n4)c3Cl)c2Cl)cnc1CN1CC2(CNC(=O)C2)C1 [compound 78] | 0.064
CNc1nc(-c2cccc(-c3cccc(-c4cnc(CN5CC6(CCC(=O)N6)C5)c(NC)n4)c3Cl)c2Cl)cnc1CN1CC2(CCC(=O)N2)C1 [compound 79] | 0.292
CNc1nc(-c2cccc(-c3cccc(-c4cnc(CNC[C@@H]5CCC(=O)N5)c(NC)n4)c3Cl)c2Cl)cnc1CNC[C@@H]1CCC(=O)N1 [compound 80] | 0.36
OC1CN(Cc2cnc(-c3cccc(-c4cccc(-c5cnc(CN6CC(O)C6)cn5)c4Cl)c3Cl)cn2)C1 [compound 81] | 4.18
CCc1nc(-c2cccc(-c3cccc(-c4cnc(CN5CC6(CNC(=O)C6)C5)c(CC)n4)c3Cl)c2Cl)cnc1CN1CC2(CNC(=O)C2)C1 [compound 83] | 0.56
CCc1nc(-c2cccc(-c3cccc(-c4cnc(CN5CC6(CCC(=O)N6)C5)c(CC)n4)c3Cl)c2Cl)cnc1CN1CC2(CCC(=O)N2)C1 [compound 84] | 0.189
CCc1nc(-c2cccc(-c3cccc(-c4cnc(CNC[C@@H]5CCC(=O)N5)c(CC)n4)c3Cl)c2Cl)cnc1CNC[C@@H]1CCC(=O)N1 [compound 85] | 0.976
COc1nc(-c2cccc(-c3cccc(-c4cnc(CNC56CC(C5)C6)c(OC)n4)c3Cl)c2Cl)cnc1CNC12CC(C1)C2 [compound 86] | 3.05
COC1CN(Cc2ncc(-c3cccc(-c4cccc(-c5cnc(CN6CC(OC)C6)c(SC)n5)c4Cl)c3Cl)nc2SC)C1 [compound 87] | 5.88
CSc1nc(-c2cccc(-c3cccc(-c4cnc(CN5CC6(CCC(=O)N6)C5)c(SC)n4)c3Cl)c2Cl)cnc1CN1CC2(CCC(=O)N2)C1 [compound 90] | 0.156
CSc1nc(-c2cccc(-c3cccc(-c4cnc(CNC[C@@H]5CCC(=O)N5)c(SC)n4)c3Cl)c2Cl)cnc1CNC[C@@H]1CCC(=O)N1 [compound 91] | 0.978
COC1CN(Cc2ncc(-c3cccc(-c4cccc(-c5cnc(CN6CC(OC)C6)c(C)n5)c4Cl)c3Cl)nc2C)C1 [compound 92] | 1.03
Cc1nc(-c2cccc(-c3cccc(-c4cnc(CNC[C@@H]5CCC(=O)N5)c(C)n4)c3Cl)c2Cl)cnc1CNC[C@@H]1CCC(=O)N1 [compound 96] | 1.5
COC1CN(Cc2ncc(-c3cccc(-c4cccc(-c5cnc(CN6CC(OC)C6)c(N(C)C)n5)c4Cl)c3Cl)nc2N(C)C)C1 [compound 97] | 0.701

Continued by falling IC50, values first:

IC50 [nM] | Structure (SMILES)
8.78 | CNc1nc(-c2cccc(-c3cccc(-c4cnc(CNC[C@H]5C[C@H](O)C5)c(NC)n4)c3Cl)c2Cl)cnc1CNC[C@H]1C[C@H](O)C1 [compound 57]
6.76 | CNc1nc(-c2cccc(-c3cccc(-c4cnc(CN)c(NC)n4)c3Cl)c2Cl)cnc1CN [compound 58]
2.99 | CNc1nc(-c2cccc(-c3cccc(-c4cnc(CNC[C@@H]5CCC(=O)N5)c(OC)n4)c3Cl)c2Cl)cnc1CNC[C@@H]1CCC(=O)N1 [compound 63]
0.862 | Cc1nc(-c2cccc(-c3cccc(-c4cnc(CN5CC6(CNC(=O)C6)C5)c(C)n4)c3Cl)c2Cl)cnc1CN1CC2(CNC(=O)C2)C1 [compound 94]
0.822 | CCN(CCc1cn[nH]c1)Cc1ncc(-c2cccc(-c3cccc(-c4cnc(CNC[C@@H]5CCC(=O)N5)c(OC)n4)c3Cl)c2Cl)nc1OC [compound 48]
0.784 | CNc1nc(-c2cccc(-c3cccc(-c4cnc(CN5CCCC5)c(NC)n4)c3Cl)c2Cl)cnc1CN1CCCC1 [compound 70]
0.647 | COC1CN(Cc2ncc(-c3cccc(-c4cccc(-c5cnc(CN6CC(OC)C6)c(N(C)C)n5)c4Cl)c3Cl)nc2Cl)C1 [compound 98]
0.566 | Cc1nc(-c2cccc(-c3cccc(-c4cnc(CN5CC(O)C5)c(C)n4)c3Cl)c2Cl)cnc1CN1CC(O)C1 [compound 93]
0.407 | CN(C)c1nc(-c2cccc(-c3cccc(-c4cnc(CN5CC(O)C5)c(N(C)C)n4)c3Cl)c2Cl)cnc1CN1CC(O)C1 [compound 99]
0.356 | COc1nc(-c2cccc(-c3cccc(-c4cnc(CNC[C@@H]5CCC(=O)N5)c(OC)n4)c3Cl)c2Cl)cnc1CNCCc1cn[nH]c1 [compound 49]
0.335 | CCc1nc(-c2cccc(-c3cccc(-c4cnc(CN5CC(O)C5)c(CC)n4)c3Cl)c2Cl)cnc1CN1CC(O)C1 [compound 82]
0.286 | CSc1nc(-c2cccc(-c3cccc(-c4cnc(CN5CC6(CNC(=O)C6)C5)c(SC)n4)c3Cl)c2Cl)cnc1CN1CC2(CNC(=O)C2)C1 [compound 89]
0.26 | COc1nc(-c2cccc(-c3cccc(-c4cnc(CNC[C@@H]5CCC(=O)N5)c(OC)n4)c3Cl)c2Cl)cnc1CNCC1CCCCO1 (stereo partly drawn) [compound 55]
0.233 | Cc1nc(-c2cccc(-c3cccc(-c4cnc(CN5CC6(CCC(=O)N6)C5)c(C)n4)c3Cl)c2Cl)cnc1CN1CC2(CCC(=O)N2)C1 [compound 95]
0.217 | CSc1nc(-c2cccc(-c3cccc(-c4cnc(CN5CC(O)C5)c(SC)n4)c3Cl)c2Cl)cnc1CN1CC(O)C1 [compound 88]
0.165 | CCNc1nc(-c2cccc(-c3cccc(-c4cnc(CN5CC6(C5)CN(C(C)=O)C6)c(NCC)n4)c3Cl)c2Cl)cnc1CN1CC2(C1)CN(C(C)=O)C2 [compound 65]
0.146 | CN(C)c1nc(-c2cccc(-c3cccc(-c4cnc(CN5CC(O)C5)c(Cl)n4)c3Cl)c2Cl)cnc1CN1CC(O)C1 [compound 100]
0.09 | COc1nc(-c2cccc(-c3cccc(-c4cnc(CNC[C@@H]5CCC(=O)N5)c(OC)n4)c3Cl)c2Cl)cnc1CNCC1CCC(C(N)=O)O1 (stereo partly drawn) [compound 56]
0.081 | CNc1nc(-c2cccc(-c3cccc(-c4cnc(CN(C)C)c(NC)n4)c3Cl)c2Cl)cnc1CN(C)C [compound 71]
0.07 | CNc1nc(-c2cccc(-c3cccc(-c4cnc(CN5CC6(CNC(=O)C6)C5)c(OC)n4)c3Cl)c2Cl)cnc1CN1CC2(CNC(=O)C2)C1 [compound 61]
